Measurements: patent US20110039763A1, “TARGETED ANTIMICROBIAL MOIETIES” (C3 JIAN, INC., priority 2009, published 2011)
Entries after “also recorded” stand apart in the source; their conditions may differ.

How the values were obtained:
microorganisms [1] = assay: Targeting peptide binding to target microorganisms (Tables 3, 10, 12); details: microorganism(s) the targeting peptide binds; binding in aqueous buffers varied with peptide solubility, preferably 1x PBS
microorganisms [2] = assay: Peptide activities: targeting/binding, antimicrobial, growth or phenotype altering (Tables 7, 8); format: cell-based; details: peptides having multiple activities
microorganisms [3] = assay: Morphology, biofilm and growth disrupting peptides (Table 5); format: cell-based; design: key: A: Peptide aggregates; B: Less hyphal formation; Clumps; Diffuse clumps and small polyps; F: Diffuse growth; H: Thin; I: Growth inhibition; Microcolony formation; Rippled; Small polyps; Thick; W: Halo formation on top, microlonies on bottom
From the text: In certain embodiments peptides that induce alterations in phenotype or other biological activities can also be used as antimicrobial effector moieties.

Substance | Target(s) (microorganisms [1]) | Activities (microorganisms [2]) | Organism, effect (microorganisms [3]; B. subtilis) | Organism, effect (microorganisms [3]; MRSA) | Organism, effect (microorganisms [3]; C. jeikeium) | Organism, effect (microorganisms [3]; S. pneumoniae) | Organism, effect (microorganisms [3]; C. jejuni) | Organism, effect (microorganisms [3]; S. epidermidis) | Organism, effect (microorganisms [3]; M. luteus) | Organism, effect (microorganisms [3]; E. coli) | Organism, effect (microorganisms [3]; E. faecalis)
PF-549: peptide having multiple activities (TGIGPIARPIEHGLDS; Peptide with targeting and/or antimicrobial activity) | E. coli; also recorded: C. albicans; also recorded: S. pneumoniae; also recorded: C. jeikeium | G B | B. subtilis (D) | MRSA (C) | – | – | – | – | – | – | –
PF-550: peptide having multiple activities (STENGWQEFESYADVGVDPRRYVPL; Peptide with targeting and/or antimicrobial activity) | S. pneumoniae | G B | B. subtilis (D) | – | – | – | – | – | – | – | –
PF-551: peptide having multiple activities (QVKEKRREIELQFRDAEKKLEASVQAE; Peptide with targeting and/or antimicrobial activity) | S. pneumoniae | G B | – | MRSA (C) | – | – | – | – | – | – | –
PF-552: peptide having multiple activities (ELDKADAALGPAKNLAPLDVINRS; Peptide with targeting and/or antimicrobial activity) | S. pneumoniae | G B | B. subtilis (D) | – | – | – | – | – | – | – | –
PF-553: peptide having multiple activities (LTIVGNALQQKNQKLLLNQKKITSLG; Peptide with targeting and/or antimicrobial activity) | S. epidermidis and E. coli and P. aeruginosa and C. albicans and MRSA and S. pneumoniae and C. jeikeium | G B | B. subtilis (D) | MRSA (M) | C. jeikeium (R) | S. pneumoniae (R) | – | – | – | – | –
PF-554: peptide having multiple activities (AKNFLTRTAEEIGEQAVREGNINGP; Peptide with targeting and/or antimicrobial activity) | S. pneumoniae | G B | B. subtilis (D) | – | – | – | – | – | – | – | –
PF-557: peptide having multiple activities (AANKAREQAAAEAKRKAEEQAR; Peptide with targeting and/or antimicrobial activity) | S. pneumoniae | G B | B. subtilis (D) | – | – | – | – | – | – | – | –
PF-558: peptide having multiple activities (ADAPPPLIVRYS; Peptide with targeting and/or antimicrobial activity) | S. epidermidis; also recorded: E. coli; also recorded: C. albicans; also recorded: C. jeikeium; also recorded: C. jejuni | G B | B. subtilis (D) | MRSA (C) | – | S. pneumoniae (R) | C. jejuni (H) | S. epidermidis (M) | – | – | –
PF-559: peptide having multiple activities (SRPGKPGGVSIDVSRDRQDILSNYP; Peptide with targeting and/or antimicrobial activity) | S. epidermidis; also recorded: M. luteus; also recorded: C. albicans; also recorded: C. jeikeium; also recorded: C. jejuni | G B | B. subtilis (C) | – | – | – | C. jejuni (A) | – | – | – | –
PF-560: peptide having multiple activities (FGNPFRGFTLAMEADFKKRK; Peptide with targeting and/or antimicrobial activity) | S. epidermidis; also recorded: M. luteus; also recorded: E. coli; also recorded: S. pneumoniae; also recorded: C. jeikeium; also recorded: C. jejuni | G B | B. subtilis (D) | MRSA (C) | – | S. pneumoniae (R) | C. jejuni (A) | – | – | – | –
PF-563: peptide having multiple activities (RPELDNELDVVQNSASLDKLQASYN; Peptide with targeting and/or antimicrobial activity) | S. epidermidis; also recorded: M. luteus; also recorded: C. jeikeium | G B | B. subtilis (D) | – | – | S. pneumoniae (H) | C. jejuni (H) | – | – | – | –
PF-564: peptide having multiple activities (TIILNDQINSLQERLNKLNAETDRR; Peptide with targeting and/or antimicrobial activity) | S. epidermidis; also recorded: C. albicans; also recorded: S. pneumoniae; also recorded: C. jeikeium | G B | B. subtilis (D) | MRSA (C) | C. jeikeium (R) | – | C. jejuni (R) | – | – | – | –
PF-566: peptide having multiple activities (EAQQVTQQLGADFNAITTPTATKV; Peptide with targeting and/or antimicrobial activity) | P. mirabilis; also recorded: S. pneumoniae | G B | B. subtilis (C) | MRSA (M) | C. jeikeium (C) | S. pneumoniae (D) | C. jejuni (D) | – | M. luteus (D) | – | –
PF-567: peptide having multiple activities (QQRVKAVDASLSQVSTQVSGAVASA; Peptide with targeting and/or antimicrobial activity) | S. epidermidis and P. aeruginosa and C. albicans and MRSA and S. pneumoniae and C. jeikeium | G B | – | MRSA (D) | C. jeikeium (C) | S. pneumoniae (D) | C. jejuni (D) | – | M. luteus (C) | – | –
PF-569: peptide having multiple activities (KSKISEYTEKEFLEFVEDIYTNNK; Peptide with targeting and/or antimicrobial activity) | M. luteus; also recorded: P. mirabilis; also recorded: S. pneumoniae; also recorded: E. faecalis; also recorded: C. jeikeium | G B | B. subtilis (D) | – | – | – | – | – | – | – | –
PF-572: peptide having multiple activities (WRASKGLPGFKAG; Peptide with targeting and/or antimicrobial activity) | S. epidermidis; also recorded: M. luteus; also recorded: E. coli; also recorded: S. pneumoniae; also recorded: C. jeikeium | G B | B. subtilis (D) | – | – | S. pneumoniae (R) | – | – | – | – | –
PF-573: peptide having multiple activities (EKKLIVKLIDSIGKSHEEIVGAG; Peptide with targeting and/or antimicrobial activity) | S. epidermidis; also recorded: S. pneumoniae | G B | – | – | – | S. pneumoniae (C) | – | – | – | – | –
PF-576: peptide having multiple activities (AYSGELPEPLVRKMSKEQVRSVMGK; Peptide with targeting and/or antimicrobial activity) | M. luteus; also recorded: P. mirabilis; also recorded: E. coli; also recorded: P. aeruginosa; also recorded: C. albicans; also recorded: S. pneumoniae | G B | – | MRSA (R) | – | S. pneumoniae (C) | C. jejuni (C) | S. epidermidis (A) | – | E. coli (A) | –
PF-584: peptide having multiple activities (chain 1 SYIKNLSNQKFLIAF; chain 2 SYIKNLSNQKFLIAF; Peptide with targeting and/or antimicrobial activity) | S. epidermidis and M. luteus and P. mirabilis and C. albicans and MRSA and S. pneumoniae and E. faecalis and C. jeikeium | G B | – | MRSA (D) | – | S. pneumoniae (D) | C. jejuni (D) | S. epidermidis (C) | – | E. coli (C) | E. faecalis (D)
